Test results: patent publication US20080234254A1, “Inhibitors of Histone Deacetylase” (UNIVERSITY OF LEEDS, priority 2004, published 2008)
Where two headings read alike, the source gives them in different places. One block for each compound: values may come before it.

What was measured:
[1] = test system: SR; test: Screening against cancer cell lines: SR (Leukaemia); assay type: cell-based
Text: (§1) Screening of Benzamide Derivatives Against Cancer Cell Lines Tables 1 and 2 tabulate by way of example the results obtained for compounds (4) and (6).

[2] = test system: NCI-H23; test: Screening against cancer cell lines: NCI-H23 (Non-Small Cell Lung); assay type: cell-based
Text: as §1
(§2) 8 non-small cell lung cancer cell lines were screened against both compound (4) and MS275.

[3] = test system: NCI-H522; test: Screening against cancer cell lines: NCI-H522 (Non-Small Cell Lung); assay type: cell-based
Text: as §1, §2

[4] = test system: HCC-2998; test: Screening against cancer cell lines: HCC-2998 (Colon); assay type: cell-based
Text: as §1
(§3) 6 colon cancer cell lines were screened against both compound (4) and MS275.

[5] = test system: LOX IMVI; test: Screening against cancer cell lines: LOX IMVI (Melanoma); assay type: cell-based
Text: as §1
(§4) 7 melanoma cancer cell lines were screened against both compound (4) and MS275.

[6] = test system: IGROV1; test: Screening against cancer cell lines: IGROV1 (Ovarian); assay type: cell-based; conditions: for GI50: IGROV-1
Text: as §1
(§5) 6 ovarian cancer cell lines were screened against both compound (4) and MS275.

[7] = test system: NCI/ADR-RES; test: Screening against cancer cell lines: NCI/ADR-RES (Breast); assay type: cell-based
Text: as §1
(§6) 7 breast cancer cell lines were screened against both compound (4) and MS275.

[8] = test system: MDA-MB-435; test: Screening against cancer cell lines: MDA-MB-435 (Breast); assay type: cell-based
Text: as §1, §6

[9] = test system: cancer cell lines; test: Screening of benzamide derivatives against cancer cell lines (summary); assay type: cell-based; conditions: summary of Tables 1 and 2
Text: as §1

[10] = test system: HCT-15; test: Screening against cancer cell lines: HCT-15 (Colon); assay type: cell-based; conditions: Homo sapiens; HCT-15, colon cancer; comparison versus MS275; read-out: potency (quantity not named; values match GI50 of Table 1)
Text: as §1, §3

[11] = test system: SK-MEL-28; test: Screening against cancer cell lines: SK-MEL-28 (Melanoma); assay type: cell-based; conditions: Homo sapiens; SK-MEL-28, melanoma; comparison versus MS275; read-out: potency (quantity not named; values match GI50 of Table 1)
Text: as §1, §4

[12] = test system: UACC-257; test: Screening against cancer cell lines: UACC-257 (Melanoma); assay type: cell-based; conditions: Homo sapiens; UACC-257, melanoma; comparison versus MS275; read-out: potency (quantity not named; values match GI50 of Table 1)
Text: as §1, §4

[13] = test system: ACHN; test: Screening against cancer cell lines: ACHN (Renal); assay type: cell-based; conditions: Homo sapiens, renal cancer, comparison versus MS275, read-out: potency (quantity not named; values match GI50 of Table 1)
Text: as §1
(§7) 7 renal cancer cell lines were screened against both compound (4) and MS275.

[14] = test system: RXF 393; test: Screening against cancer cell lines: RXF 393 (Renal); assay type: cell-based; conditions: Homo sapiens; RXF 393, renal cancer; comparison versus MS275; read-out: potency (quantity not named; values match GI50 of Table 1)
Text: as §1, §7

[15] = test system: SN12C; test: Screening against cancer cell lines: SN12C (Renal); assay type: cell-based; conditions: Homo sapiens, renal cancer, comparison versus MS275, read-out: potency (quantity not named; values match GI50 of Table 1)
Text: as §1, §7

[16] = test system: MDA-MB-231/ATCC; test: Screening against cancer cell lines: MDA-MB-231/ATCC (Breast); assay type: cell-based; conditions: Homo sapiens, breast cancer, comparison versus MS275, read-out: potency (quantity not named; values match GI50 of Table 1)
Text: as §1, §6

[17] = test system: KM-12; test: Comparison test versus MS275: KM-12 (colon cancer); assay type: cell-based; conditions: Homo sapiens, KM12, read-out: potency (quantity not named; values match GI50 of Table 1)
Text: as §3

[18] = test system: 786-0; test: Comparison test versus MS275: 786-0 (renal cancer); assay type: cell-based; conditions: Homo sapiens, read-out: potency (quantity not named; values match GI50 of Table 1)
Text: as §7

[19] = test system: SK-OV-3; test: Comparison test versus MS275: SK-OV-3 (ovarian cancer); assay type: cell-based; conditions: Homo sapiens, read-out: potency (quantity not named; values match GI50 of Table 1)
Text: as §5

[20] = test system: OVCAR-4; test: Comparison test versus MS275: OVCAR-4 (ovarian cancer); assay type: cell-based; conditions: Homo sapiens, read-out: potency (quantity not named; values match GI50 of Table 1)
Text: as §5

[21] = test system: rat fibroblasts; conditions: cited from earlier work
[22] = test system: tumours; conditions: mice; cited from earlier work

Structure (SMILES): C=C(CN(C)Cc1ccccc1)c1ccc(C(=O)Nc2ccccc2N)cc1 [(2), N-(2-amino-phenyl)-4-(1-{[benzyl(methyl)amino]methyl}vinyl)benzamide]
melting point: 110 to 111 °C

Structure (SMILES): C=C(CN1CCc2c([nH]c3ccccc23)C1)c1ccc(C(=O)Nc2ccccc2N)cc1 [(6), N-(2-aminophenyl)-4-[1-(1,3,4,9-tetrahydro-2H-β-carbolin-2-ylmethyl)vinyl]benzamide]
GI50 ([1]; Homo sapiens): 0.622 µM
CC50 ([1]; Homo sapiens, read-out: LC50): > 50 µM
TGI ([1]; Leukaemia, Table 2): — (‘—’ indicates a concentration exceeding 50 μM.)
GI50 ([2]; Homo sapiens, NCI-H23): 1.04 µM
CC50 ([2]; Homo sapiens, NCI-H23, read-out: LC50): 13.4 µM
TGI ([2]; NCI-H23, Non-Small Cell Lung, Table 2): 3.2 µM
GI50 ([3]; Homo sapiens, NCI-H522): 0.15 µM
CC50 ([3]; Homo sapiens, NCI-H522, read-out: LC50): > 50 µM
TGI ([3]; NCI-H522, Non-Small Cell Lung, Table 2): 3.0 µM
TGI ([4]; HCC-2998, Colon, Table 2): 1.9 µM
GI50 ([4]; Homo sapiens, HCC 2998): 0.731 µM
CC50 ([4]; Homo sapiens, HCC 2998, read-out: LC50): 5 µM
GI50 ([5]; Homo sapiens): 0.763 µM
CC50 ([5]; Homo sapiens, read-out: LC50): > 50 µM
TGI ([5]; Melanoma, Table 2): 2.4 µM
GI50 ([6]; Homo sapiens): 0.032 µM
CC50 ([6]; Homo sapiens, IGROV-1, read-out: LC50): > 50 µM
TGI ([6]; IGROV1, Ovarian, Table 2): 8.5 µM
TGI ([7]; Breast, Table 2): 3.9 µM
GI50 ([7]; Homo sapiens): 0.973 µM
CC50 ([7]; Homo sapiens, read-out: LC50): 18.3 µM
GI50 ([8]; Homo sapiens, MDA-MB-435): 0.948 µM
CC50 ([8]; Homo sapiens, MDA-MB-435, read-out: LC50): 5.6 µM
TGI ([8]; MDA-MB-435, Breast, Table 2): 2.2 µM
activity against cancer cell lines (in words) [9]: nanomolar activity

Structure (SMILES): CC(C)=C(CN1CCc2ccccc2C1)c1ccc(C(=O)Nc2ccccc2N)cc1 [(14), N-(2-Amino-phenyl)-4-[1-(3,4-dihydro-1H-isoquinolin-2-ylmethyl)-2-methyl-propenyl]-benzamide]
melting point: 120 °C

Structure (SMILES): Nc1ccccc1NC(=O)c1ccc(CNC(=O)OCc2cccnc2)cc1 [MS275, reference compound]
GI50 ([2]; Homo sapiens, NCI-H23, non-small cell lung cancer, comparison versus MS275, read-out: potency (quantity not named; values match GI50 of Table 1)): 1.03 µM
GI50 ([3]; Homo sapiens, NCI-H522, non-small cell lung cancer, comparison versus MS275, read-out: potency (quantity not named; values match GI50 of Table 1)): 1 µM
GI50 ([4]; Homo sapiens, HCC-2998, colon cancer, comparison versus MS275, read-out: potency (quantity not named; values match GI50 of Table 1)): 1.26 µM
GI50 [10]: 3.98 µM
GI50 ([5]; Homo sapiens, melanoma, comparison versus MS275, read-out: potency (quantity not named; values match GI50 of Table 1)): 0.79 µM
GI50 [11]: 2 µM
GI50 [12]: 1.54 µM
GI50 ([6]; Homo sapiens, IGROV1, ovarian cancer, comparison versus MS275, read-out: potency (quantity not named; values match GI50 of Table 1)): 2.51 µM
GI50 [13]: 2 µM
GI50 [14]: 2 µM
GI50 [15]: 5.01 µM
GI50 ([7]; Homo sapiens, breast cancer, comparison versus MS275, read-out: potency (quantity not named; values match GI50 of Table 1)): 1.26 µM
GI50 [16]: 2 µM
GI50 ([8]; Homo sapiens, MDA-MB-435, breast cancer, comparison versus MS275, read-out: potency (quantity not named; values match GI50 of Table 1)): 10 µM
GI50 [17]: 25 µM
GI50 [18]: 3.16 µM
GI50 [19]: 5.01 µM
GI50 [20]: 20 µM

Structure (SMILES): CC(/C=C/C(=O)NO)=C\[C@@H](C)C(=O)c1ccc(N(C)C)cc1 [Trichostatin A]
effect on the cell cycle [21]: arrest of rat fibroblasts at the G1 and G2 phases of the cell cycle
formation of tumours [22]: prevent the formation of tumours in mice

Second part, the compound after the results:

melting point: 163 to 164 °C
Structure (SMILES): C=C(CN1CCOCC1)c1ccc(C(=O)Nc2ccccc2N)cc1 [(1), N-(2-Amino-phenyl)-4-(1-morpholin-4-ylmethyl-vinyl)-benzamide]

melting point: 89 to 91 °C
Structure (SMILES): C=C(CNCc1ccccc1)c1ccc(C(=O)Nc2ccccc2N)cc1 [(7), N-(2-aminophenyl)-4-{1-[(benzylamino)methyl]vinyl}benzamide]

melting point: 115 to 116 °C
Structure (SMILES): C=C(CN1CCN(c2ccccc2OC)CC1)c1ccc(C(=O)Nc2ccccc2N)cc1 [(9), N-(2-aminophenyl)-4-{1-[4-(2-methoxy-phenyl)-piperazin-1-ylmethyl]vinyl}-benzamide]

melting point: 129 °C
Structure (SMILES): C=C(CN1CCOCC1)c1ccc(CC(=O)Nc2ccccc2N)cc1 [(11), N-(2-Amino-phenyl)-2-[4-(1-morpholin-4-ylmethyl-vinyl)-phenyl]-acetamide]

melting point: 79 to 81 °C
Structure (SMILES): C=C(CN1CCOCC1)c1ccc(CCCC(=O)Nc2ccccc2N)cc1 [(13), N-(2-Amino-phenyl)-4-[4-(1-morpholin-4-ylmethyl-vinyl)-phenyl]-butanamide]
